Experimental data taken from ChEMBL document CHEMBL1128810, “Glutamine-derived aldehydes for the inhibition of human rhinovirus 3C protease” (Bioorg Med Chem Lett, 1995).
Where a SMILES comes first, the peptide text is derived from it. The star is where a group is joined. Boc = CC(C)(C)OC(=O)*

Experiments:
[1] = molecular target: T1, Human rhinovirus A protease (Human rhinovirus sp., UniProt Q4U254); test: Inhibitory activity against human rhinovirus-14 Protease 3C; parameters: species or system rhinovirus B14
T1 sequence (Q4U254 whole entry): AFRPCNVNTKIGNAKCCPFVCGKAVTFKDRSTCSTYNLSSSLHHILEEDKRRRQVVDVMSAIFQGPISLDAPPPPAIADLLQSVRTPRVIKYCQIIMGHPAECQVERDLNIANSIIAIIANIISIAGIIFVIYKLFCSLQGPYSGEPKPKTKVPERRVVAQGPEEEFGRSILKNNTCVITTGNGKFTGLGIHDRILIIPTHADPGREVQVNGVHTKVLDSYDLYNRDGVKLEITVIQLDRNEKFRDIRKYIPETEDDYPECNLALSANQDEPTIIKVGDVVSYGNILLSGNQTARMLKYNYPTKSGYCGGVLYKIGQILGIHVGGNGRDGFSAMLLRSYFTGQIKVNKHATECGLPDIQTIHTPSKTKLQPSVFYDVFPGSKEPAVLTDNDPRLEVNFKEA

Nucleic Acid [2] = test: In vitro ability to selectively inhibit the translation of rhinoviral RNA in translation assay; type: functional; settings: Human rhinovirus sp.
rhinovirus B14 = test: Inhibitory activity against human rhinovirus-14 in cell culture; type: functional; settings: Rhinovirus B; read-out: ED50 (the source's name)
Nucleic Acid [3] = test: In vitro ability to selectively inhibit the translation of rhinoviral RNA in translation assay; Toxic; type: functional; settings: Human rhinovirus sp.

Row | SMILES | IC50 [1] | Activity (Nucleic Acid [2]) | EC50 (rhinovirus B14) | Activity (Nucleic Acid [3])
1 | CC(C)CC(=O)N[C@@H](Cc1ccccc1)C(=O)N[C@H](C=O)CCC(N)=O | > 80 µM | > 200 µM | – | –
2 | CC(C)(C)OC(=O)N[C@@H](Cc1ccccc1)C(=O)N[C@H](C=O)CCC(N)=O | > 80 µM | – | – | –
3 | CC(=O)NCC(=O)N[C@@H](Cc1ccccc1)C(=O)N[C@H](C=O)CCC(N)=O (Ac-Gly-Phe-Gln-aldehyde) | 16 µM | – | – | –
4 | CC(=O)N[C@@H](CC(C)C)C(=O)N[C@@H](Cc1ccccc1)C(=O)N[C@H](C=O)CCC(N)=O (Ac-Leu-Phe-Gln-aldehyde) | 2.7 µM | 170 µM | – | –
5 | CC(C)C[C@H](NC(=O)OC(C)(C)C)C(=O)N[C@@H](Cc1ccccc1)C(=O)N[C@H](C=O)CCC(N)=O (Boc-Leu-Phe-Gln-aldehyde) | > 80 µM | – | – | –
6 | CC(C)C[C@H](NC(=O)[C@@H](NC(=O)OC(C)(C)C)C(C)C)C(=O)N[C@@H](Cc1ccccc1)C(=O)NCC=O (Boc-VLFG-aldehyde) | 10 µM | 180 µM | – | –
7 | CC(C)C[C@H](NC(=O)[C@@H](NC(=O)OC(C)(C)C)C(C)C)C(=O)N[C@@H](Cc1ccccc1)C(=O)N[C@H](C=O)CCC(N)=O (Boc-VLFQ-aldehyde) | 0.6 µM | 10 µM | 500 µM | –
8 | CC(C)C[C@H](N)C(=O)N[C@@H](Cc1ccccc1)C(=O)N[C@H](C=O)CCC(N)=O (H-Leu-Phe-Gln-aldehyde) | 1 µM | – | – | Toxic
